Measured values: patent US20170304228A1, “NEW INDICATION OF CINACALCET HCL PHARMACEUTICAL COMPOSITION FOR TREATING CANCER” (LAUNX BIOMEDICAL CO., LTD., priority 2014, published 2017)
Counter-ions that a name gives are not always drawn. Like-named read-outs stand apart in the source and are kept apart here.

Assays:
Assay type in all cases: cell-based
U2OS = test: Cell viability analysis (WST-1), U2OS; conditions: Homo sapiens, read-out: survival rate (viability) of cells
Experimental: (§1) The cell numbers were counted and reseed as 2×10^6 in culture plate/flask. Then, the culture medium were added to a volume of 10 ml, and the cells were cultured for 2-3 days. Then, the cells were suspended for loading into 96-well plates. The number of cells was 3000 and the volume of the culture medium was 100 μl each well.
(§2) Removing the original culture medium from 96-well plate. Then add 100 μl of commercially drug at a concentration of 10 μM per well. After 72 hours, add the diluted WST-1 reagent to the well with 100 μl/well, and the diluted WST-1 reagent was acquired from the dilution of 9:1 medium and WST-1 stock reagent. Finally, the total volume of each well was 200 μl/well. Culture the 96-well plate at 37° C. for 30 to 90 minutes. Detecting and calculate the survival rate of each cancer cells with an ELISA reader at OD450 nm. The lower viability of cancer cells represents better inhibition effect via the Cinacalcet HCl drug. Otherwise, the higher viability of cancer cells represents worse inhibition effect via the Cinacalcet HCl drug.
This inhibition test of Cinacalcet HCl on other cancer cells were using osteosarcoma cell line U2OS (Table 14), skin cancer cell lines A375 and BCC (Table 15). The inhibitory tests of Cinacalcet HCl were performed 4 times for each cell lines and then the average value of the inhibitory tests was calculated.

T24 = test: Cell viability analysis (WST-1), T24; conditions: Homo sapiens, read-out: survival rate (viability) of cells
Experimental: as §1, §2
This inhibition test of Cinacalcet HCl on abdominal-related cancer cells were using bladder cancer cell line TSGH and T24 (Table 3), cervical cancer cell lines HeLa and C-33A (Table 4), renal cancer cell line 786-O (Table 5). The inhibitory tests of Cinacalcet HCl were performed 4 times for each cell lines and then the average value of the inhibitory tests was calculated.

AGS = test: Cell viability analysis (WST-1), AGS; conditions: Homo sapiens, read-out: survival rate (viability) of cells
Experimental: as §1, §2
(§3) This inhibition test of Cinacalcet HCl on gastrointestinal tract-related cancer cells were using gastric cancer cell lines AGS and MKN-45 (Table 9), hepatic cancer cell lines HepG2 and Hep3B (Table 10), colorectal cancer cell lines HCT116-wt and LoVo (Table 11), pancreatic cancer cell line AsPC-1 and BxPC-3(Table 12), tongue cancer cell line SAS (Table 13). The inhibitory tests of Cinacalcet HCl were performed 4 times for each cell lines and then the average value of the inhibitory tests was calculated.

TOV-21G = test: Cell viability analysis (WST-1), TOV-21G; conditions: Homo sapiens, TOV21G, read-out: survival rate (viability) of cells
Experimental: as §1, §2
(§4) This inhibition test of Cinacalcet HCl on endocrine-related cancer cells were using prostate cancer cell lines PC-3 and LNCap (Table 6), breast cancer cell lines MCF7 and MDA-MB-231 (Table 7), and ovarian cancer cell lines NIH-OVCAR-3 and TOV-21G (Table 8). The inhibitory tests of Cinacalcet HCl were performed 4 times for each cell lines and then the average value of the inhibitory tests was calculated.

ovarian cancer cells = test: Summary of cell viability, ovarian cancer cells; conditions: 72 hours, read-out: Inhibitory effect
Experimental: as §1, §2
(§5) Cinacalcet HCl is having different inhibitory effect on different tumor cell type even in the same cancer. […] (FIG. 1)

AsPC-1 = test: Cell viability analysis (WST-1), AsPC-1; conditions: Homo sapiens, read-out: survival rate (viability) of cells
Experimental: as §1, §2, §3

various cancer cells = test: Inhibitory effect on various cancer cells; conditions: FIG. 1
Experimental: as §2, §5

colorectal cancer cells = test: Summary of cell viability, colorectal cancer cells; conditions: 72 hours, read-out: Inhibitory effect
Experimental: as §1, §2, §5

MDA-MB-231 = test: Cell viability analysis (WST-1), MDA-MB-231; conditions: Homo sapiens, read-out: survival rate (viability) of cells
Experimental: as §1, §2, §4

LoVo = test: Cell viability analysis (WST-1), LoVo; conditions: Homo sapiens, read-out: survival rate (viability) of cells
Experimental: as §1, §2, §3

normal cells = test: Toxicity to normal cells
Experimental: as §2
This inhibition test of Cinacalcet HCl on normal cells were using normal kidney cell line HEK293 (Table 16), normal pulmonary epithelial cell lines […] BEAS-2B (Table 17). The inhibitory tests of Cinacalcet HCl were performed 4 times for each cell lines and then the average value of the inhibitory tests was calculated The results were shown in Tables 16 and Tables 17.

MCF7 = test: Cell viability analysis (WST-1), MCF7; conditions: Homo sapiens, read-out: survival rate (viability) of cells
Experimental: as §1, §2, §4

HCT116-wt = test: Cell viability analysis (WST-1), HCT116-wt; conditions: read-out: survival rate (viability) of cells
Experimental: as §1, §2, §3

cervical cancer cells = test: Summary of cell viability, cervical cancer cells; conditions: 72 hours, read-out: Inhibitory effect
Experimental: as §1, §2, §5

pancreatic cancer cells = test: Summary of cell viability, pancreatic cancer cells; conditions: 72 hours, read-out: Inhibitory effect
Experimental: as §1, §2, §5

gastric cancer cells = test: Summary of cell viability, gastric cancer cells; conditions: 72 hours, read-out: Inhibitory effect
Experimental: as §1, §2, §5

`C[C@@H](NCCCc1cccc(C(F)(F)F)c1)c1cccc2ccccc12` [Cinacalcet HCl, Cinacalcet hydrochloride] was tested, and the viability at 10 µM (U2OS; 72 h, average of tests) was 77.4%, the viability at 10 µM (U2OS; 72 hours, test 6-26-10 min) was 82.6% and the viability at 10 µM (U2OS; 72 hours, test 6-28-10 min) was 86.7%. The viability at 10 µM (U2OS; 72 hours, test 6-30-10 min) was 64.9%, the viability at 10 µM (U2OS; 72 hours, test 7-3-10 min) was 75.3% and the viability at 10 µM (T24; T-24, 10 μM, 72 hours, test T24-1-30 min) was 71.1%. It also gave a viability at 10 µM (T24; T-24, 10 μM, 72 hours, test T24-2-20 min) of 133%, a viability at 10 µM (T24; T-24, 10 μM, 72 hours, test T24-3-20 min) of 177% and a viability at 10 µM (T24; T-24, 10 μM, 72 hours, test T24-4-20 min) of 103%. The viability at 10 µM (T24; T-24, 72 h, 10 μM, average of tests) was 121%, the viability at 10 µM (AGS; 72 h, average of tests) was 28.3% and the viability at 10 µM (AGS; 72 hours, test 0510-10 min) was 26.6%. For the same molecule, the viability at 10 µM (AGS; 72 hours, test 0512-10 min) was 20%, the viability at 10 µM (AGS; 72 hours, test 0515-10 min) was 52.3% and the viability at 10 µM (AGS; 72 hours, test 0517-10 min) was 14.5%. It also gave a viability at 10 µM (TOV-21G; 72 h, average of tests) of 113%, a viability at 10 µM (TOV-21G; 72 hours, test 7-3-30 min) of 129% and a viability at 10 µM (TOV-21G; 72 hours, test 7-4-30 min) of 109%. For the same molecule, the viability at 10 µM (TOV-21G; 72 hours, test 7-7-30 min) was 104%, the viability at 10 µM (TOV-21G; 72 hours, test -4-30 min) was 108% and the viability at 10 µM (ovarian cancer cells) was 58.7%. For the same molecule, the viability at 10 µM (AsPC-1; ASPC1, 10 μM, 72 hours, test 1-4-30 min) was 71.9%, the viability at 10 µM (AsPC-1; ASPC1, 10 μM, 72 hours, test 1-7-3-30 min) was 61.6% and the viability at 10 µM (AsPC-1; ASPC1, 10 μM, 72 hours, test 1-7-4-30 min) was 81.7%. For the same molecule, the viability at 10 µM (AsPC-1; ASPC1, 10 μM, 72 hours, test 1-7-7-30 min) was 60.4%, the viability at 10 µM (AsPC-1; ASPC1, 72 h, 10 μM, Average of tests) was 68.9% and the “inhibitory effect on various cancer cells” value (various cancer cells) was “significant inhibitory effect and specificity”. It also gave a viability at 10 µM (colorectal cancer cells) of 74.4%, a viability at 10 µM (MDA-MB-231; MDA-MB-231, 10 μM, 72 hours, test 0612-10 min) of 92.3% and a viability at 10 µM (MDA-MB-231; MDA-MB-231, 10 μM, 72 hours, test 0614-10 min) of 84.9%. For the same molecule, the viability at 10 µM (MDA-MB-231; MDA-MB-231, 10 μM, 72 hours, test 0616-10 min) was 60.8%, the viability at 10 µM (MDA-MB-231; MDA-MB-231, 10 μM, 72 hours, test 0619-10 min) was 92.8% and the viability at 10 µM (MDA-MB-231; MDA-MB-231, 72 h, 10 μM, average of tests) was 82.7%. The viability at 10 µM (LoVo; 72 h, average of tests) was 93.4%, the viability at 10 µM (LoVo; 72 hours, test 0616-10 min) was 73.9% and the viability at 10 µM (LoVo; 72 hours, test 0619-10 min) was 125%. The viability at 10 µM (LoVo; 72 hours, test 0621-10 min) was 90.4%, the viability at 10 µM (LoVo; 72 hours, test 0623-10 min) was 84.2% and the “toxicity to normal cells” value (normal cells) was “no toxicity or had little toxicity”. For the same molecule, the viability at 10 µM (MCF7; MCF7, 10 μM, 72 hours, test 0612-10 min) was 87.7%, the viability at 10 µM (MCF7; MCF7, 10 μM, 72 hours, test 0614-10 min) was 75.6% and the viability at 10 µM (MCF7; MCF7, 10 μM, 72 hours, test 0616-10 min) was 82.2%. It also gave a viability at 10 µM (MCF7; MCF7, 10 μM, 72 hours, test 0619-10 min) of 77.2%, a viability at 10 µM (MCF7; MCF7, 72 h, 10 μM, average of tests) of 80.7% and a viability at 10 µM (HCT116-wt; 72 h, average of tests) of 110%. It also gave a viability at 10 µM (HCT116-wt; 72 hours, test 0602-30 min) of 89%, a viability at 10 µM (HCT116-wt; 72 hours, test 0605-10 min) of 107% and a viability at 10 µM (HCT116-wt; 72 hours, test 0607-10 min) of 132%. For the same molecule, the viability at 10 µM (HCT116-wt; 72 hours, test 0609-10 min) was 113%, the viability at 10 µM (cervical cancer cells) was 111% and the viability at 10 µM (pancreatic cancer cells) was 82.4%. The viability at 10 µM (gastric cancer cells) was 123%.
